Results: ChEMBL document CHEMBL2401618 (Eur J Med Chem, 2013)

Experiments:
[1] = tested on: Leishmania donovani; experiment: Leishmanicidal activity against promastigote stage of Leishmania donovani LV9 assessed as cell viability by MTT assay; format: functional, organism-based
[2] = tested on: Plasmodium falciparum; experiment: Antiplasmodial activity against chloroquine-resistant Plasmodium falciparum FcB1/Columbia infected in human erythrocytes assessed as parasite growth inhibition at 1 ug/ml after 24 hrs by [3H]-hypoxanthine incorporation assay relative to control; format: functional; details: read-out: GI
[3] = tested on: Plasmodium falciparum; experiment: Antiplasmodial activity against chloroquine-resistant Plasmodium falciparum FcB1/Columbia infected in human erythrocytes assessed as parasite growth inhibition at 10 ug/ml after 24 hrs by [3H]-hypoxanthine incorporation assay relative to control; format: functional; details: read-out: GI
[4] = tested on: Trypanosoma brucei brucei; experiment: Antitrypanosomal activity against bloodstream stage of Trypanosoma brucei brucei 93 assessed as parasite growth inhibition at 1 ug/ml after 72 hrs by resazurin reduction assay relative to control; format: functional; details: Trypanosoma brucei, 93, 72 h; read-out: GI
[5] = tested on: Trypanosoma brucei brucei; experiment: Antitrypanosomal activity against bloodstream stage of Trypanosoma brucei brucei 93 assessed as parasite growth inhibition at 10 ug/ml after 72 hrs by resazurin reduction assay relative to control; format: functional; details: Trypanosoma brucei, 93, 72 h; read-out: GI
[6] = tested on: Trypanosoma brucei brucei; experiment: Antitrypanosomal activity against bloodstream stage of Trypanosoma brucei brucei 93 assessed as parasite growth inhibition at 50 ug/ml after 72 hrs by resazurin reduction assay relative to control; format: functional; details: Trypanosoma brucei, 93, 72 h; read-out: GI
[7] = tested on: Plasmodium falciparum; experiment: Antiplasmodial activity against chloroquine-resistant Plasmodium falciparum FcB1/Columbia infected in human erythrocytes assessed as parasite growth inhibition at 50 ug/ml after 24 hrs by [3H]-hypoxanthine incorporation assay relative to control; format: functional; details: read-out: GI
[8] = Safety index, ratio of IC50 for african green monkey Vero cells to IC50 for promastigote stage of Leishmania donovani LV9; format: toxicity, cell-based; details: read-out: Ratio IC50
[9] = Safety index, ratio of IC50 for african green monkey Vero cells to IC50 for chloroquine-resistant Plasmodium falciparum FcB1/Columbia infected in human erythrocytes; format: toxicity, cell-based; details: read-out: Ratio IC50
[10] = tested on: Vero; experiment: Cytotoxicity against african green monkey Vero cells assessed as growth inhibition after 72 hrs by MTS assay; format: cell-based; details: Chlorocebus sabaeus
[11] = tested on: Plasmodium falciparum; experiment: Antiplasmodial activity against chloroquine-resistant Plasmodium falciparum FcB1/Columbia infected in human erythrocytes assessed as parasite growth inhibition after 24 hrs by [3H]-hypoxanthine incorporation assay; format: functional, organism-based
[12] = Safety index, ratio of IC50 for african green monkey Vero cells to IC50 for bloodstream stage of Trypanosoma brucei brucei 93; format: toxicity, cell-based; details: read-out: Ratio IC50
[13] = tested on: Trypanosoma brucei brucei; experiment: Antitrypanosomal activity against bloodstream stage of Trypanosoma brucei brucei 93 assessed as parasite growth inhibition after 72 hrs by resazurin reduction assay; format: functional, organism-based; details: Trypanosoma brucei, 93, 72 h

## C=CCOc1ccc(C(=O)C2=C(O)[C@]3(CC=C(C)C)C[C@H](CC=C(C)C)[C@@](C)(CCC=C(C)C)[C@](CC=C(C)C)(C2=O)C3=O)cc1O [14-O-ALLYL-GUTTIFERONE A]
[1]
  IC50: 15.7 µM
[2]
  inhibition of growth at 1 µg/mL: 0.83%
[3]
  inhibition of growth at 10 µg/mL: 11%
[4]
  inhibition of growth at 1 µg/mL: 20.3%
[5]
  inhibition of growth at 10 µg/mL: 95.1%
[6]
  inhibition of growth at 50 µg/mL: 92.6%
[7]
  inhibition of growth at 50 µg/mL: 99.5%

## CCOc1ccc(C(=O)C2=C(O)[C@]3(CC=C(C)C)C[C@H](CC=C(C)C)[C@@](C)(CCC=C(C)C)[C@](CC=C(C)C)(C2=O)C3=O)cc1O [14-O-ETHYL-GUTTIFERONE A]
[1]
  IC50: 16.2 µM
[2]
  inhibition of growth at 1 µg/mL: 14.9%
[3]
  inhibition of growth at 10 µg/mL: 28.2%
[4]
  inhibition of growth at 1 µg/mL: 15.8%
[5]
  inhibition of growth at 10 µg/mL: 94.7%
[6]
  inhibition of growth at 50 µg/mL: 93%
[7]
  inhibition of growth at 50 µg/mL: 99.7%

## C#CCOc1ccc(C(=O)C2=C(O)[C@]3(CC=C(C)C)C[C@H](CC=C(C)C)[C@@](C)(CCC=C(C)C)[C@](CC=C(C)C)(C2=O)C3=O)cc1O [14-O-PROPARGYL-GUTTIFERONE A]
[1]
  IC50: 18 µM
[2]
  inhibition of growth at 1 µg/mL: 6.95%
[3]
  inhibition of growth at 10 µg/mL: 49.4%
[4]
  inhibition of growth at 1 µg/mL: 20.9%
[5]
  inhibition of growth at 10 µg/mL: 96%
[6]
  inhibition of growth at 50 µg/mL: 92.1%
[7]
  inhibition of growth at 50 µg/mL: 99.5%

## COCOc1ccc(C(=O)C2=C(O)[C@]3(CC=C(C)C)C[C@H](CC=C(C)C)[C@@](C)(CCC=C(C)C)[C@](CC=C(C)C)(C2=O)C3=O)cc1O [14-O-METHOXYMETHYL-GUTTIFERONE A]
[8]
  selectivity ratio: 0.9
[9]
  selectivity ratio: 2.7
[10]
  IC50: 13 µM
[1]
  IC50: 14.6 µM
[11]
  IC50: 4.84 µM
[2]
  inhibition of growth at 1 µg/mL: 10.8%
[3]
  inhibition of growth at 10 µg/mL: 74.8%
[4]
  inhibition of growth at 1 µg/mL: 13.2%
[5]
  inhibition of growth at 10 µg/mL: 96.3%
[6]
  inhibition of growth at 50 µg/mL: 92.5%
[7]
  inhibition of growth at 50 µg/mL: 99.6%

## COc1ccc([N+](=O)[O-])cc1COc1ccc(C(=O)C2=C(O)[C@]3(CC=C(C)C)C[C@H](CC=C(C)C)[C@@](C)(CCC=C(C)C)[C@](CC=C(C)C)(C2=O)C3=O)cc1OCc1cc([N+](=O)[O-])ccc1OC
[1]
  IC50: > 100 µM
[2]
  inhibition of growth at 1 µg/mL: 13.7%
[3]
  inhibition of growth at 10 µg/mL: 20.1%
[4]
  inhibition of growth at 1 µg/mL: 9.11%
[5]
  inhibition of growth at 10 µg/mL: 51.9%
[6]
  inhibition of growth at 50 µg/mL: 93%
[7]
  inhibition of growth at 50 µg/mL: 79.1%

## COCOc1ccc(C(=O)C2=C(O)[C@]3(CC=C(C)C)C[C@H](CC=C(C)C)[C@@](C)(CCC=C(C)C)[C@](CC=C(C)C)(C2=O)C3=O)cc1OCOC
[1]
  IC50: 23.3 µM
[2]
  inhibition of growth at 1 µg/mL: 7.94%
[3]
  inhibition of growth at 10 µg/mL: 20.9%
[4]
  inhibition of growth at 1 µg/mL: 6.82%
[5]
  inhibition of growth at 10 µg/mL: 95.5%
[6]
  inhibition of growth at 50 µg/mL: 93.2%
[7]
  inhibition of growth at 50 µg/mL: 99.5%

## CC(C)=CCC[C@]1(C)[C@@H](CC=C(C)C)C[C@]2(CC=C(C)C)C(=O)[C@@]1(CC=C(C)C)C(=O)C(C(=O)c1ccc(OCCC3OCCO3)c(O)c1)=C2O [14-O-2-ETHYL-1,3-DIOXOLANE-GUTTIFERONE A]
[1]
  IC50: 22.2 µM
[2]
  inhibition of growth at 1 µg/mL: 15.3%
[3]
  inhibition of growth at 10 µg/mL: 49.1%
[4]
  inhibition of growth at 1 µg/mL: 8.18%
[5]
  inhibition of growth at 10 µg/mL: 96.4%
[6]
  inhibition of growth at 50 µg/mL: 94.9%
[7]
  inhibition of growth at 50 µg/mL: 99.6%

## CC(C)=CCC[C@]1(C)[C@@H](CC=C(C)C)C[C@]2(CC=C(C)C)C(=O)[C@@]1(CC=C(C)C)C(=O)C(C(=O)c1ccc(OC(=O)C=C(C)C)c(OC(=O)C=C(C)C)c1)=C2O
[1]
  IC50: 28.9 µM
[2]
  inhibition of growth at 1 µg/mL: 3.6%
[3]
  inhibition of growth at 10 µg/mL: 31.6%
[4]
  inhibition of growth at 1 µg/mL: 10.5%
[5]
  inhibition of growth at 10 µg/mL: 92%
[6]
  inhibition of growth at 50 µg/mL: 96.1%
[7]
  inhibition of growth at 50 µg/mL: 94.9%

## CCCCCCCCCCCCCCCCOP(=O)([O-])OCC[N+](C)(C)C [MILTEFOSINE]
[8]
  selectivity ratio: 4
[10]
  IC50: 65 µM
[1]
  IC50: 16.2 µM

## C[C@@H]1[C@H](O)[C@@H](C)/C=C/C=C/C=C/C=C/C=C/C=C/C=C/[C@H](O[C@@H]2O[C@H](C)[C@@H](O)[C@H](N)[C@@H]2O)C[C@@H]2O[C@](O)(C[C@@H](O)C[C@@H](O)[C@H](O)CC[C@@H](O)C[C@@H](O)CC(=O)O[C@H]1C)C[C@H](O)[C@H]2C(=O)O [AMPHOTERICIN B]
[8]
  selectivity ratio: 11
[10]
  IC50: 0.33 µM
[1]
  IC50: 0.03 µM

## CC(C)=CCC[C@]1(C)[C@@H](CC=C(C)C)C[C@]2(CC=C(C)C)C(=O)[C@@]1(CC=C(C)C)C(=O)C(C(=O)c1ccc(OC(C)C)c(O)c1)=C2O [14-O-ISOPROPYL-GUTTIFERONE A]
[1]
  IC50: 18 µM
[2]
  inhibition of growth at 1 µg/mL: 14.7%
[3]
  inhibition of growth at 10 µg/mL: 25.6%
[4]
  inhibition of growth at 1 µg/mL: 15.4%
[5]
  inhibition of growth at 10 µg/mL: 95.7%
[6]
  inhibition of growth at 50 µg/mL: 94.4%
[7]
  inhibition of growth at 50 µg/mL: 99.8%

## CC(C)=CCC[C@]1(C)[C@@H](CC=C(C)C)C[C@]2(CC=C(C)C)C(=O)[C@@]1(CC=C(C)C)C(=O)C(C(=O)c1ccc(OCc3ccccc3)c(OCc3ccccc3)c1)=C2O
[8]
  selectivity ratio: < 0.3
[12]
  selectivity ratio: 10.1
[10]
  IC50: 32.6 µM
[1]
  IC50: > 100 µM
[2]
  inhibition of growth at 1 µg/mL: 7.07%
[3]
  inhibition of growth at 10 µg/mL: 38.6%
[13]
  IC50: 3.23 µM
[4]
  inhibition of growth at 1 µg/mL: 32.8%
[5]
  inhibition of growth at 10 µg/mL: 94.8%
[6]
  inhibition of growth at 50 µg/mL: 94.9%
[7]
  inhibition of growth at 50 µg/mL: 99.1%

## CCCOc1ccc(C(=O)C2=C(O)[C@]3(CC=C(C)C)C[C@H](CC=C(C)C)[C@@](C)(CCC=C(C)C)[C@](CC=C(C)C)(C2=O)C3=O)cc1O [14-O-PROPYL-GUTTIFERONE A]
[1]
  IC50: 20.7 µM
[2]
  inhibition of growth at 1 µg/mL: 2.36%
[3]
  inhibition of growth at 10 µg/mL: 13.4%
[4]
  inhibition of growth at 1 µg/mL: 5.33%
[5]
  inhibition of growth at 10 µg/mL: 94.6%
[6]
  inhibition of growth at 50 µg/mL: 94.2%
[7]
  inhibition of growth at 50 µg/mL: 99.6%

## CCN(CC)CCCC(C)Nc1ccnc2cc(Cl)ccc12 (stereo not given) [CHLOROQUINE]
[10]
  IC50: 21 µM

## CC(C)=CCC[C@]1(C)[C@@H](CC=C(C)C)C[C@]2(CC=C(C)C)C(=O)[C@@]1(CC=C(C)C)C(=O)C(C(=O)c1ccc(OCc3ccccc3)c(O)c1)=C2O [14-O-BENZYL-GUTTIFERONE A]
[1]
  IC50: 22.4 µM
[2]
  inhibition of growth at 1 µg/mL: 16.1%
[3]
  inhibition of growth at 10 µg/mL: 49%
[4]
  inhibition of growth at 1 µg/mL: 23.6%
[5]
  inhibition of growth at 10 µg/mL: 96%
[6]
  inhibition of growth at 50 µg/mL: 95%
[7]
  inhibition of growth at 50 µg/mL: 99.1%

## COc1ccc([N+](=O)[O-])cc1COc1ccc(C(=O)C2=C(O)[C@]3(CC=C(C)C)C[C@H](CC=C(C)C)[C@@](C)(CCC=C(C)C)[C@](CC=C(C)C)(C2=O)C3=O)cc1O [14-O-2-METHOXY-5-NITROBENZYL-GUTTIFERONE A]
[1]
  IC50: > 100 µM
[2]
  inhibition of growth at 1 µg/mL: 6.06%
[3]
  inhibition of growth at 10 µg/mL: 14.6%
[4]
  inhibition of growth at 1 µg/mL: 8.4%
[5]
  inhibition of growth at 10 µg/mL: 88.9%
[6]
  inhibition of growth at 50 µg/mL: 96.1%
[7]
  inhibition of growth at 50 µg/mL: 97.4%

## COc1ccc(C(=O)C2=C(O)[C@]3(CC=C(C)C)C[C@H](CC=C(C)C)[C@@](C)(CCC=C(C)C)[C@](CC=C(C)C)(C2=O)C3=O)cc1OC
[8]
  selectivity ratio: 1.8
[10]
  IC50: 21.8 µM
[1]
  IC50: 12.2 µM
[2]
  inhibition of growth at 1 µg/mL: 13.8%
[3]
  inhibition of growth at 10 µg/mL: 59.2%
[4]
  inhibition of growth at 1 µg/mL: 17.7%
[5]
  inhibition of growth at 10 µg/mL: 96.3%
[6]
  inhibition of growth at 50 µg/mL: 94%
[7]
  inhibition of growth at 50 µg/mL: 99.3%
